Data reported in the supplement of paper PMC10627819.

What was measured:
[1] = tested on: S. aureus Newman; assay: Bliss interaction score (quartile over a dose matrix) (fitness difference); higher = more antagonism (negative = synergy)
Summary of the method: (§1)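 Growth in each well was taken as OD595 at entry into stationary phase. Dividing by the plate's robust no-drug mean and capping at 1 gave fitness, and single-drug fitness was inferred from the combination data. The Bliss score, observed minus product-expected fitness, is summarised by quartiles over technical, biological and donor/recipient replicates.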

[2] = tested on: S. aureus DSM 20231; assay: as above
Summary of the method: as §1

[3] = tested on: B. subtilis 168; assay: as above
Summary of the method: as §1

[4] = tested on: S. pneumoniae D39V; assay: as above
Summary of the method: as §1

[5] = tested on: S. pneumoniae D39V; assay: fitness (endpoint OD595 vs no drug) (fraction); higher = more growth
Summary of the method: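 Cultures at OD595 0.01 were dispensed into 384-well plates in TSB, LB Lennox or CY and incubated at 37 °C. Every 30 min for 14 h, OD595 was read and corrected by the first reading. Fitness is the optical density at entry into stationary phase relative to the robust mean of no-drug control wells, capped at 1.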
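For Bliss interaction score (quartile over a dose matrix) in this document: first quartile when negative (synergy) and third quartile when positive (antagonism).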

O=C(O[C@@H]1Cc2c(O)cc(O)cc2O[C@@H]1c1cc(O)c(O)c(O)c1)c1cc(O)c(O)c(O)c1 [EGCG] + O=C1CN(/N=C/c2ccc([N+](=O)[O-])o2)C(=O)N1 [Nitrofurantoin]
Conditions	Bliss interaction score
[1]	0.0864
[2]	0.103
[3]	0.106
[4]	0.0733

fitness, [5]
Conditions	partner 1.285 µg/mL	partner 2 µg/mL	partner 2.57 µg/mL	partner 4 µg/mL	partner 8 µg/mL
first compound 12.5 µg/mL	0.914	0.858	0.938	0.832	0.558
first compound 25 µg/mL	0.949	0.878	0.924	0.891	0.571
first compound 50 µg/mL	0.954	≥ 1	0.951	0.802	0.566

[5], partner 5.14 µg/mL, one replicate
Conditions	fitness
first compound 12.5 µg/mL	0.917
first compound 25 µg/mL	0.901
first compound 50 µg/mL	0.921

C[C@@H](O)[C@H]1C(=O)N2C(C(=O)O)=C(SCCNC=N)C[C@H]12 [Imipenem] + C/C(=C\C(=O)OCCCCCCCCC(=O)O)C[C@@H]1OC[C@H](C[C@@H]2O[C@H]2[C@@H](C)[C@H](C)O)[C@@H](O)[C@H]1O [Pseudomonic acid]
Conditions	Bliss interaction score
[1]	0.0109
[2]	0.0093
[3]	0.12
[4]	-0.146

fitness, [5]
Conditions	first compound 0.005 µg/mL	first compound 0.0065 µg/mL	first compound 0.01 µg/mL	first compound 0.013 µg/mL	first compound 0.02 µg/mL	first compound 0.026 µg/mL
partner 0.03 µg/mL	0.897	0.799	0.896	0.889	0.917	0.89
partner 0.06 µg/mL	0.772	–	0.799	0.7	0.77	0.688
partner 0.12 µg/mL	0.578	0.439	0.583	0.479	0.583	0.504

C[C@@H](O)[C@H]1C(=O)N2C(C(=O)O)=C(SCCNC=N)C[C@H]12 [Imipenem] + CC1=C\[C@@H](O)CC(=O)Cc2nc(co2)C(=O)N2CCC=C2C(=O)O[C@H](C(C)C)[C@H](C)/C=C/C(=O)NC\C=C\1 [Virginiamycin M1]
Conditions	Bliss interaction score
[1]	-0.0199
[2]	0.0515
[3]	0.0502
[4]	0.0822

fitness, [5], one replicate
Conditions	partner 0.15 µg/mL	partner 0.3 µg/mL	partner 0.5 µg/mL	partner 1 µg/mL
first compound 0.005 µg/mL	0.993	0.88	0.978	0.979
first compound 0.01 µg/mL	≥ 1	0.995	0.97	≥ 1
first compound 0.02 µg/mL	0.988	0.901	0.978	≥ 1

fitness, [5]
Conditions	first compound 0.005 µg/mL	first compound 0.0065 µg/mL	first compound 0.01 µg/mL	first compound 0.013 µg/mL	first compound 0.02 µg/mL	first compound 0.026 µg/mL
partner 0.5 µg/mL	–	0.992	–	0.999	–	0.964
partner 1 µg/mL	–	0.983	–	≥ 1	–	0.978
partner 2 µg/mL	0.893	0.983	0.88	–	0.888	0.891

C[C@@H](O)[C@H]1C(=O)N2C(C(=O)O)=C(SCCNC=N)C[C@H]12 [Imipenem] + CC(=O)NC[C@H]1CN(c2ccc(N3CCOCC3)c(F)c2)C(=O)O1 [Linezolid]
Conditions	Bliss interaction score
[1]	0.0656
[2]	0.0377
[3]	0.128
[4]	-0.109

fitness, [5]
Conditions	first compound 0.005 µg/mL	first compound 0.0065 µg/mL	first compound 0.01 µg/mL	first compound 0.013 µg/mL	first compound 0.02 µg/mL	first compound 0.026 µg/mL
partner 0.105 µg/mL	0.845	–	0.837	–	0.833	–
partner 0.2 µg/mL	–	0.7	–	0.775	–	0.71
partner 0.21 µg/mL	0.752	–	0.727	–	0.701	–
partner 0.4 µg/mL	–	0.506	–	0.592	–	0.494
partner 0.42 µg/mL	0.6	–	0.47	–	0.578	–
partner 0.8 µg/mL	–	0.116	–	0.225	–	0.148

C[C@@H](O)[C@H]1C(=O)N2C(C(=O)O)=C(SCCNC=N)C[C@H]12 [Imipenem] + CCC(C)C1C(=O)NC(=C)C(=O)NC(C(=O)NC(CSCC(C(=O)N1)NC(=O)/C(=C/C)/NC(=O)C(C(C)CC)N)C(=O)NC2C(SCC(NC(=O)CNC(=O)C3CCCN3C2=O)C(=O)NC(CCCCN)C(=O)NC4C(SCC(NC(=O)CNC(=O)C(NC(=O)C(NC(=O)C(NC(=O)CNC4=O)C)CC(C)C)CCSC)C(=O)NC(CC(=O)N)C(=O)NC(CCSC)C(=O)NC(CCCCN)C(=O)NC5C(SCC6C(=O)NC(C(=O)NC(CSC(C(C(=O)N6)NC(=O)C(NC5=O)C)C)C(=O)NC(CO)C(=O)NC(C(C)CC)C(=O)NC(CC7=CN=CN7)C(=O)NC(C(C)C)C(=O)NC(=C)C(=O)NC(CCCCN)C(=O)O)CC8=CN=CN8)C)C)C)CC(C)C [Nisin]
main component drawn
Conditions	Bliss interaction score
[1]	-0.0142
[2]	0.0486
[3]	-0.0431
[4]	-0.0573

fitness, [5], main component drawn
Conditions	first compound 0.005 µg/mL	first compound 0.0065 µg/mL	first compound 0.01 µg/mL	first compound 0.013 µg/mL	first compound 0.02 µg/mL	first compound 0.026 µg/mL
partner 0.4275 µg/mL	≥ 1	–	0.988	–	≥ 1	–
partner 0.855 µg/mL	0.992	–	0.993	–	≥ 1	–
partner 1.6 µg/mL	–	0	–	0.193	–	0.448
partner 1.71 µg/mL	0.133	–	0.0676	–	0.0904	–
partner 3.2 µg/mL	–	0	–	0.0047	–	0.0017
partner 6.4 µg/mL	–	0	–	0.0067	–	0

C[C@@H](O)[C@H]1C(=O)N2C(C(=O)O)=C(SCCNC=N)C[C@H]12 [Imipenem] + CCC[C@@H]1C[C@@H](C(=O)N[C@@H]([C@H]2O[C@H](SC)[C@H](O)[C@@H](O)[C@H]2O)[C@@H](C)O)N(C)C1 [Lincomycin]
Conditions	Bliss interaction score
[1]	0.0416
[2]	0.09
[3]	0.163
[4]	-0.0603

fitness, [5]
Conditions	first compound 0.005 µg/mL	first compound 0.0065 µg/mL	first compound 0.01 µg/mL	first compound 0.013 µg/mL	first compound 0.02 µg/mL	first compound 0.026 µg/mL
partner 0.2 µg/mL	–	0.68	–	0.738	–	0.693
partner 0.215 µg/mL	0.829	–	0.846	–	0.814	–
partner 0.4 µg/mL	–	0.563	–	0.626	–	0.596
partner 0.43 µg/mL	0.719	–	0.722	–	0.71	–
partner 0.8 µg/mL	–	0.0187	–	0.0703	–	0.0319
partner 0.86 µg/mL	0.474	–	0.451	–	0.453	–

C[C@@H](O)[C@H]1C(=O)N2C(C(=O)O)=C(SCCNC=N)C[C@H]12 [Imipenem] + CCN(CC)CCOC(=O)c1ccc(N)cc1 [Procaine]
Conditions	Bliss interaction score
[1]	0.0422
[2]	0.0667
[3]	0.0429
[4]	0.0493

fitness, [5], one replicate
Conditions	first compound 0.005 µg/mL	first compound 0.01 µg/mL	first compound 0.02 µg/mL
partner 85.5 µg/mL	0.932	0.963	0.985
partner 171 µg/mL	≥ 1	0.994	≥ 1
partner 342 µg/mL	0.923	0.931	0.883

fitness, [5]
Conditions	first compound 0.0065 µg/mL	first compound 0.013 µg/mL	first compound 0.026 µg/mL
partner 85.5 µg/mL	0.977	0.978	0.888
partner 171 µg/mL	0.957	0.963	0.917
partner 342 µg/mL	0.957	0.912	0.841

C[C@@H](O)[C@H]1C(=O)N2C(C(=O)O)=C(SCCNC=N)C[C@H]12 [Imipenem] + CN1C2=CC=CC=C2N=C3C1=CC=CC3=O [Pyocyanin]
Conditions	Bliss interaction score
[1]	0.0283
[2]	-0.0657
[3]	0.0885
[4]	0.0503

fitness, [5], one replicate
Conditions	first compound 0.005 µg/mL	first compound 0.01 µg/mL	first compound 0.02 µg/mL
partner 0.325 µg/mL	0.945	0.947	≥ 1
partner 0.65 µg/mL	0.979	0.959	0.957

fitness, [5]
Conditions	first compound 0.0065 µg/mL	first compound 0.013 µg/mL	first compound 0.026 µg/mL
partner 0.325 µg/mL	0.975	≥ 1	0.983
partner 0.65 µg/mL	0.936	0.929	0.892
partner 1.3 µg/mL	0.591	0.698	0.657
